# Data taken from patent publication US6391918B1, “N-sulphonyl and N-sulphinyl phenylglycinamide” (priority 1998, dated 2002).
structure (smiles),measurement,value
CCS(=O)(=O)NC(C(=O)NCCc1ccc(OC)c(OC)c1)c1ccc(Cl)cc1 (stereo not shown),melting point,136 to 138 °C
